Reference: US11247994B2, “6-dithio-substituted-2′-deoxyguanosine compound, preparation method thereof and use thereof” (ZHEJIANG UNIVERSITY, priority 2018, dated 2022)
Read-outs that look alike come from different tables or passages of the source.

Legend:
[1] = biological target: T1, TrxR/Trx-1 (Homo sapiens, UniProt P10599); assay: Ellman test, inhibition of TrxR/Trx-1 activity; assay type: biochemical
T1 sequence (P10599 2-105 limits assumed): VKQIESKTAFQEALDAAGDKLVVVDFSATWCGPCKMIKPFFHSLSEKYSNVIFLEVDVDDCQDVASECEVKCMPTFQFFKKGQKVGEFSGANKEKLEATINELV
From the text: Ellman Test—Inhibitory Effect of 6-dithio-substituted-2′-deoxyguanosine Derivative Analogues on TrxR/Trx-1 Activity
A TrxR/TR experiment based on the Ellman reaction was used to determine the inhibitory activity of candidate compounds. Ellman reaction is that 5,5′-dithiobis (2-nitrobenzoic acid) (DTNB) reacts with sulfhydryl (—SH) to form a yellow substance with absorption at 412 nm. The increase of absorption can be equivalent to the decrease of NADPH mediated by TrxR, thus further judging the activity of TrxR/Trx-1. All experiments were carried out on 96-well plates. Before the start of the enzyme reaction, five groups of corresponding test compound stock solutions with different concentrations were prepared. In the TrxR/Trx-1 reaction, a total volume per well was 60 μL, including 100 mM HEPES, 5 mM EDTA (HE buffer, pH 7.5), 1 mM NADPH, 1.0 μM TrxR, 0.8 μM Trx-1, 2.5 mg/mL bovine insulin and the required concentration of compounds to be tested. No compound to be tested was added to the control group. No compound to be tested, TrxR and Trx-1 were added in the blank group. The plate was shaken on an oscillator for 30 seconds to fully mix the reactants. After incubation at 37° C. for 30 min, 100 μL of the prepared mixture containing 6 M guanidine hydrochloride, 50 mm Tris and 10 mm DTNB was added to terminate the reaction. After 15 minutes of incubation, the absorbance was measured at 412 nm. Finally, TrxR/Trx-1 activity %=(Atest−Akb)/(Acontrol−Akb), that is, the relative percentage of TrxR/Trx-1 activity was the activity inhibited by adding 2′-deoxyguanosine derivatives relative to the activity without 2′-deoxyguanosine derivatives. The data were fitted into a concentration response curve with a variable slope, and the IC50 value was calculated from the curve.

[2] = tested on: NCM460; assay: MTT assay, cell growth inhibition, NCM460; assay type: cell-based; details: Homo sapiens, 48 hours, read-out: Tumor cell growth inhibition IC50, NCM460
From the text: (§1) MTT Assay—Inhibitory Effect of 6-dithio-substituted-2′-deoxyguanosine Derivatives on Tumor Cell Growth
(§2) We measured the tumor cell growth inhibitory activity of candidate compounds by MTT assay. Human tumor cells in logarithmic growth phase were digested with 0.25% pancreatin for a certain time, centrifuged, re-suspended and counted with a blood cell counting plate to prepare a cell suspension, and the cell suspension was adjusted to 1.0×10^4-1×10^5 cells/mL. The cell suspension was inoculated into a 96-well culture plate, 100 μL per well, and cultured in an incubator with saturated humidity, 37° C. and 5% CO2 for 24 hours until the cells completely adhered to the wall. The test compound was diluted to the required concentration with a complete medium, the complete medium of the 96-well culture plate inoculated with human tumor cells was sucked out, a medicament-containing medium was added, 100 μL per well, the final concentration of DMSO was less than 0.1%, and the culture plate was put in an incubator for 48 hours. 10 μl of MTT was added to each well of the 96-well plate, and the culture was continued for 4 h. The culture was stopped and the culture solution in the well was carefully sucked off. 150 μL DMSO was added to each well, and shaken at a low speed for 10 min on a shaking table, so that the crystal was fully dissolved. The absorbance of each well was measured at OD 570 nm of an enzyme-linked immunosorbent assay instrument. At the same time, zeroing wells (the culture medium, MTT, dimethyl sulfoxide) and control wells (cells, a drug dissolution medium with the same concentration, a culture solution, MTT, dimethyl sulfoxide) were set up, and the cell growth inhibitory activity was calculated with the corresponding solvents as the control. 3-6 multiple wells in each group were set up with repetition of several times. Cell viability of control=(Adrug group−Azeroing well)/(Acontrol well−Azeroing well)*100%. Drawing was drawn, the data were fitted into a concentration response curve with a variable slope, and IC50 value was calculated from the curve.

[3] = tested on: human colon cancer cells HCT116; assay: MTT assay, tumor cell growth inhibition, HCT116; assay type: cell-based; details: HCT-116, 48 hours
From the text: as §1, §2

[4] = tested on: human colon cancer cells SW620; assay: MTT assay, tumor cell growth inhibition, SW620; assay type: cell-based; details: SW-620, 48 hours
From the text: as §1, §2

[5] = tested on: human colon cancer cells HT29; assay: MTT assay, tumor cell growth inhibition, HT29; assay type: cell-based; details: HT-29, 48 hours
From the text: as §1, §2

[6] = tested on: human leukemia cells K562; assay: MTT assay, tumor cell growth inhibition, K562; assay type: cell-based; details: 48 hours
From the text: as §1, §2

[7] = tested on: human breast cancer cells MCF7; assay: MTT assay, tumor cell growth inhibition, MCF7; assay type: cell-based; details: 48 hours
From the text: as §1, §2

[8] = tested on: human breast cancer cells Bcap37; assay: MTT assay, tumor cell growth inhibition, Bcap37; assay type: cell-based; details: 48 hours
From the text: as §1, §2

[9] = tested on: human melanoma cells A375; assay: MTT assay, tumor cell growth inhibition, A375; assay type: cell-based; details: A-375, 48 hours
From the text: as §1, §2

[10] = tested on: human liver cancer cells HepG2; assay: MTT assay, tumor cell growth inhibition, HepG2; assay type: cell-based; details: 48 hours
From the text: as §1, §2

[11] = tested on: human non-small cell lung cancer A549; assay: MTT assay, tumor cell growth inhibition, A549; assay type: cell-based; details: 48 hours
From the text: as §1, §2

[12] = tested on: human colon cancer cell line HCT116 subcutaneous transplanted tumor; assay: Tumor-bearing test in nude mice, HCT116 subcutaneous transplanted tumor (tumor volume, TUNEL); assay type: in vivo; details: HCT116 model; for Extent of apoptosis in tumor tissue (TUNEL staining, rank order): frozen tumor sections, DAPI and TUNEL, G group = blank; for Inhibitory effect on the growth of subcutaneous transplanted tumor tissue in nude mice (rank order, from slope of tumor volume): compound A 2 mg/kg first 8 times, 10 mg/kg last 4 times, others equimolar, KB = blank
From the text: Tumor-Bearing Test in Nude Mice—Inhibitory Effect of 6-Dithio-Substituted-2′-Deoxyguanosine Derivatives on the Growth of Subcutaneous Transplanted Tumor Tissue in Nude Mice
1) Tumor-Bearing Mouse Model of Human Colon Cancer Cell Line HCT116
(§3) We took human colon cancer cell line HCT116 as the research object, and established a subcutaneous transplanted tumor model of human colon cancer in 32 immunodeficient nude mice. The 24th generation HCT116 cells in logarithmic growth phase were digested with pancreatin to prepare a single-cell suspension, and 1×10^7 cells were inoculated subcutaneously in the right armpit of male nude mice about 5 weeks old. After inoculation, cyclophosphamide (100 mg/kg) was injected intraperitoneally for two consecutive days. […] On the 20th day after colon cancer cell HCT116 was implanted subcutaneously, nude mice were divided into 7 groups by a random number table method, including a test drug group, a positive control group and a blank control group. Specifically, group A: the compound A was administrated; Group B: the compound B was administrated; Group C: the compound C was administrated; Group D: the compound D was administrated; Group E: the compound 6-thio-DG was administrated; Group F: the compound PX-12 was administrated; Group G: blank group, without administration of any compound. Except group C with 3 rats and group G with 4 rats, all other 5 groups had 5 rats, they mice were labeled and injected by tail vein once every two days for 24 days, 12 times, with the dose of compound A being 2 mg/kg for the first 8 times and 10 mg/kg for the last 4 times, and the dosages of other drugs being the same molar weights. The tumor volume was calculated by taking the length of the tumor as the longest diameter and the width as the corresponding vertical diameter, and the tumor volume V=(length×width^2) mm^3/2. 48 hours after the last treatment, blood was taken from the eyes, and then the animals were killed. Blood was centrifuged to get the supernatant, and then blood biochemical analysis was performed. Paraffin embedded sections of fixed tissues were stained with HE. The tumor mass in a frozen tissue was sectioned in a frozen state, and then stained by DAPI and TUNEL to judge the apoptosis of the tumor tissue in nude mice.

[13] = Blood biochemical analysis and HE staining of tissues in HCT116 tumor-bearing nude mice; assay type: in vivo; details: tail vein once every two days, 12 times, blood 48 hours after the last treatment
Method: as §3

[14] = Ellman reaction, 37° C. 30 min, absorbance 412 nm, read-out: IC50, inhibition of TrxR/Trx-1 activity
[15] = tail vein once every two days for 24 days

SMILES	IC50 [1, 14] [µM]	IC50 [2] [µM]	IC50 [3] [µM]	IC50 [4] [µM]	IC50 [5] [µM]	IC50 [6] [µM]	IC50 [7] [µM]	IC50 [8] [µM]	IC50 [9] [µM]	IC50 [10] [µM]	IC50 [11] [µM]	Extent of apoptosis in tumor tissue (TUNEL staining, rank order) [12]	Inhibitory effect on the growth of subcutaneous transplanted tumor tissue in nude mice (rank order, from slope of tumor volume) [12, 15]	Alanine aminotransferase [13] [U/L]	Albumin [13] [g/L]	Alkaline phosphatase [13] [U/L]	Aspartate aminotransferase [13] [U/L]	BUN [13] [mmol/L]	Chloride ion [13] [mmol/L]	Creatine kinase [13] [U/L]	other results
Nc1nc(Cl)nc2c1ncn2[C@H]1C[C@H](O)[C@@H](CO)O1 [Cladribine, reference compound]	> 100	> 1000	28.4	> 100	9.44	7.86	> 100	> 100													
CC(C)(C)SSc1nc(N)nc2c1ncn2C1C[C@H](O)[C@@H](CO)O1 (stereo partly shown) [Compound C, 6-(tert-butyldithio)-2′-deoxyguanosine]	47.7	> 1000	21.8		7.37	28.7		35.1	3.06	10 to 50	35.8	D group>A group≈B group≈E group (6-thio-dG group)>C group>F group (PX-12 group)>G group (KB group)	D>B≈A≈6-thio-dG>PX-12>C>KB	25.5	27.9	33.7	128.3	9.00	120.5	980.7	Creatinine [13]: 6.67 µmol/L; Glucose [13]: 2.99 mmol/L; Potassium ion [13]: 6.17 mmol/L; Sodium ion [13]: 159.0 mmol/L; Total bilirubin [13]: 0.80 µmol/L; Total cholesterol [13]: 2.65 mmol/L; Total protein [13]: 51.6 g/L; Triglyceride [13]: 1.15 mmol/L
Nc1nc(SSCc2ccc(F)cc2)c2ncn(C3C[C@H](O)[C@@H](CO)O3)c2n1 (stereo partly shown) [B, 6-(p-fluorobenzyldithio)-2′-deoxyguanosine]		> 1000	2.66	1.71	3.02	10.1	15.6	21	0.52	< 10	13.5	D group>A group≈B group≈E group (6-thio-dG group)>C group>F group (PX-12 group)>G group (KB group)	D>B≈A≈6-thio-dG>PX-12>C>KB	105.9	26.3	31.0	254.4	14.8	124.0	2169	IC50 ([1]; read-out: TrxR/Trx-1 IC50): 9.78 µM; Ability to inhibit the growth of transplanted tumor tissue compared with positive controls ([12]; tail vein once every two days for 24 days, equimolar doses): close to that of the positive control 6-thio-dG and stronger than that of the positive control PX-12; Creatinine [13]: 8.67 µmol/L; Glucose [13]: 2.29 mmol/L; Potassium ion [13]: 6.26 mmol/L; Sodium ion [13]: 158.0 mmol/L; Total bilirubin [13]: 0.90 µmol/L; Total cholesterol [13]: 2.76 mmol/L; Total protein [13]: 50.7 g/L; Triglyceride [13]: 0.52 mmol/L
CCC(C)SSc1ncc[nH]1 (stereo not shown) [PX-12, 1-methylpropyl-2-imidazolyl disulfide, reference compound]	2.55	> 1000	34.5	1.68	3.37	21.7	> 100	> 100	2.98	10 to 50	7.43	D group>A group≈B group≈E group (6-thio-dG group)>C group>F group (PX-12 group)>G group (KB group)	D>B≈A≈6-thio-dG>PX-12>C>KB	30.8	33.0	44.2	169.0	8.10	109.9	1434	Creatinine [13]: 3.20 µmol/L; Glucose [13]: 1.47 mmol/L; Potassium ion [13]: 7.64 mmol/L; Sodium ion [13]: 155.8 mmol/L; Total bilirubin [13]: -0.90 µmol/L; Total cholesterol [13]: 2.53 mmol/L; Total protein [13]: 56.9 g/L; Triglyceride [13]: 1.18 mmol/L
